Legend:
Solubility in DMSO/water = assay type: physicochemical; details: DMSO in water
CYP 2D6 = CYP 2D6 (Homo sapiens, UniProt P10635); assay: CYP450 inhibition 2D6; assay type: in vitro ADME; details: compound 10 μM
hP2X3R = target: T1, hP2X3R (Homo sapiens, UniProt P56373); assay: Calcium influx (Fluo-4) evoked by α,β-meATP in HEK293 cells stably expressing hP2X3R; assay type: cell-based; details: antagonistic activity; HEK293 cells expressing hP2X3R; agonist at EC70
T1 construct: expressed in transfected cells
T1 sequence (P56373 1-397): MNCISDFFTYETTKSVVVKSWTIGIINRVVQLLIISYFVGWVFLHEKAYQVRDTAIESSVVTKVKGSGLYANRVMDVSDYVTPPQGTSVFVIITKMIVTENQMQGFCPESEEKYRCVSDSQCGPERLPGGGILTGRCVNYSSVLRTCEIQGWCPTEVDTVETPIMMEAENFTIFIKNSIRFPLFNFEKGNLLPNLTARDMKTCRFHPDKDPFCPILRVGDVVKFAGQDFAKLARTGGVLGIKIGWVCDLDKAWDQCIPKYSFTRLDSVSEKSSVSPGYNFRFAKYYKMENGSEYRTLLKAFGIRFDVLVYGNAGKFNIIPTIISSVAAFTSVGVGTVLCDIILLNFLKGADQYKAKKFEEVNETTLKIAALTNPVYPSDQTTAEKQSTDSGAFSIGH
Protocol: For the evaluation of P2XR activities, a cell-based assay system was employed to measure the level of fluorescence emission, based on Fluo-4 dye, during Ca^2+ influx evoked by αβmeATP in HEK293 cells stably expressing hP2X2/3R and hP2X3R. The library containing 8364 representative compounds for the screening of antagonistic activity was provided by the Korea Chemical Bank. The antagonistic activities were evaluated in the presence of P2X3R agonist of the concentration for EC70 value (200–250 nM for hP2X3R and 1–4 μM for hP2X2/3R highly expressed cell lines), and AF353 was used as the positive control antagonist for comparison. For the first round of screening, a single concentration (25 μM) of each library compound was tested to identify initial hit compounds, which were subsequently validated using both concentrations of 25 and 10 μM. Using a cut-off threshold of higher than 50% antagonistic activity and after confirming dose-dependency, 12 main hit compounds were selected.
3.4. Cell-Based Assay: Measurement of Calcium Influx by Fluorescence-Based Fluo-4 Dye Uptake in HEK293 Cells Expressing hP2X2/3 and hP2X3 Receptors
Human P2X3-expressing HEK293 cells were grown in DMEM supplemented with 10% fetal bovine serum and 1% antibiotic–antimycotic as a monolayer culture at 37 °C in a humidified atmosphere of 5% CO2. The 96-well black plates used in the experiments were prepared by coating them with 1× poly-D-lysine (A3890401, Thermo-Fisher Scientific Korea, Seoul, South Korea). An aliquot of 40 μL 1× poly-D-lysine was used to treat each of the wells in a flat orientation. After leaving the plates for at least 4 h to absorb the poly-D-lysine, the plates were allowed to dry for at least 6 h. The DMEM used in the culture of HEK293 cells was removed from the dish, followed by application of 3 mL 1× PBS for washing. Removal of 1× PBS was followed by application of 1 mL trypsin/EDTA, and the cells were collected by centrifugation at 1200 rpm for 2 min. The supernatant was removed, and 1 mL fresh DMEM added. The cells were resuspended in media and plates prepared with 4.8 × 10^4 cells/well in 56 μL/well. After 18 h of cell culture in the 96-well black plate, 56 μL of Fluo-4 dye (Fluo-4 Direct^TM Calcium Assay Kit, F10471, Invitrogen, Thermo-Fisher Scientific Korea, Seoul, South Korea) was added to each well, prepared according to the manufacturer’s protocol, and incubated for 50 min~1 h under culturing conditions. Then, 12.4 μL of the appropriate compound solution was added to each well, and the positive control was AF353 (A1612, Sigma Aldrich Korea, Seoul, South Korea) and the negative control was 5% DMSO. Plates were incubated at room temperature and sealed to avoid interference from light for 50 min~1 h. Flexstation 3 and its software provided by Molecular Devices was used for the measurement of fluorescence in real time of treatments using prepared α,β-meATP (M6517, Sigma Aldrich) solution to evoke calcium influx and increased cell membrane potential.
For the analysis of antagonistic activities, all data were calculated by Origin Pro 9.1 software provided by Originlab and the fitting of graphs was proceeded by the growth/sigmoidal and hill1 process within no weights for data selections. For the analysis of the behavioral assessments of pain models, all data are expressed as mean ± SEM. The dose–response data are presented as percentages of the maximum possible effect. Statistical significance was analyzed by independent t-test. The criterion for statistical significance was p < 0.05. The statistical analysis was performed using SPSS 25.0 software (IBM Corp., Armonk, NY, USA).

SNL rats = assay: Antiallodynic effect, spinal nerve ligation (SNL) neuropathic pain model, von Frey; assay type: in vivo, male Sprague-Dawley rats; details: intravenous 12 mg/kg, von Frey filaments, five rats
Source text: The experimental protocol (CNUHIACUC-20039) was approved by the Institutional Animal Care and Use Committee of Chonnam National University Hospital. Animal models of neuropathic pain (NP) were constructed by spinal nerve ligation (SNL) or chemotherapeutics injection (chemotherapy-induced peripheral neuropathy, CIPN) in male Sprague-Dawley rats (weight, 150–180 g). Briefly, under sevoflurane anesthesia, the left L5 and L6 spinal nerves near the vertebral column were separated and tightly ligated using 6-0 silk. Cisplatin was administered intraperitoneally at 2 mg/kg once daily for 4 days. The paw withdrawal threshold (PWT) to mechanical stimuli was measured using calibrated 0.41–15.2 g von Frey filaments (Stoelting, Wood Dale, IL, USA), as described previously. […] The antiallodynic effects of the intravenous vehicle and LDD4692 (3mg/rat) were evaluated and expressed as the percentage of the maximal possible effect (% MPE). % MPE = [(post drug PWT − post injured baseline PWT)/(cutoff PWT − post injured baseline PWT)] × 100
For the analysis of antagonistic activities, all data were calculated by Origin Pro 9.1 software provided by Originlab and the fitting of graphs was proceeded by the growth/sigmoidal and hill1 process within no weights for data selections. For the analysis of the behavioral assessments of pain models, all data are expressed as mean ± SEM. […]

BBB-PAMPA permeability = assay type: in vitro ADME; details: UV/vis spectrophotometry

Sequence of CYP 2D6 (P10635 whole entry): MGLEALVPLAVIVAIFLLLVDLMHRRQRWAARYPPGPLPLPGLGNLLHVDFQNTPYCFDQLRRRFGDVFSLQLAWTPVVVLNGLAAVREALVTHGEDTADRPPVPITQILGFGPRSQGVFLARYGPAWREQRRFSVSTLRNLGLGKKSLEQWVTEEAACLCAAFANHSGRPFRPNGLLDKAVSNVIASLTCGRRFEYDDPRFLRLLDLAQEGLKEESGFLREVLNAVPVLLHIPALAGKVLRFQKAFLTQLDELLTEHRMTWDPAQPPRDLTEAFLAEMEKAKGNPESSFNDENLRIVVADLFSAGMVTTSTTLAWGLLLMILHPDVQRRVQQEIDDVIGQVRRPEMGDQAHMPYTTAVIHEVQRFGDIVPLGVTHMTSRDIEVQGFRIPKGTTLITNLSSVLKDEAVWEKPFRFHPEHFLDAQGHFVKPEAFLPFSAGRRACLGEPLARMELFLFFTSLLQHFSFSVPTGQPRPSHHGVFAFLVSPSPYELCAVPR

O=C1C(NC2CCN(C(=O)c3ccc(F)c(F)c3)CC2)=C(Cl)C(=O)c2[nH]c(C(F)(F)F)nc21 [14h, 6-Chloro-5-((1-(3,4-difluorobenzoyl)piperidin-4-yl)amino)-2-(trifluoromethyl)-1H-benzo[d]imidazole-4,7-dione]
Solubility (Solubility in DMSO/water): soluble in 30% DMSO in water | CYP450 inhibition 2D6 (CYP 2D6): 7.74% | IC50 (hP2X3R): 375 ± 33 nM | Maximal possible effect (% MPE), antiallodynic (SNL rats): 54% | BBB-PAMPA logPe (BBB-PAMPA permeability): <−6.000 logPe
